In ChEMBL document CHEMBL5252598, “Armeniaspirol analogues disrupt the electrical potential (ΔΨ) of the proton motive force” (Bioorg Med Chem Lett, 2023):
In brackets after ≈: the same amount, converted by molar mass. Activity calls are given as the source filed them. No cut-off for these calls is given here.

Columns and labels:
Staphylococcus aureus = assay: Antibacterial activity against Staphylococcus aureus USA300 assessed as bacterial growth inhibition by checkerboard assay; assay type: functional
Cell membrane [1] = assay: Induction of membrane depolarization in methicillin-resistant Staphylococcus aureus USA300 assessed as measuring minimum effective concentration by DiSC3(5) dye-based fluorescence assay
Cell membrane [2] = assay: Induction of membrane depolarization in methicillin-resistant Staphylococcus aureus USA300 by […] dye-based fluorescence assay; assay type: subcellular
Escherichia coli [3] = assay: Antagonistic antibacterial activity against Escherichia coli harbouring TolC-deficient mutant assessed as fractional inhibitory concentration in presence of kanamycin by checker board assay; assay type: functional
Cell membrane [4] = assay: Induction of membrane depolarization in methicillin-resistant Staphylococcus aureus USA300 assessed as disruption of transmembrane electrical potential by DiSC3(5) dye-based fluorescence assay
Escherichia coli [5] = assay: Antibacterial activity against Escherichia coli harbouring TolC-deficient mutant assessed as fractional inhibitory concentration in presence of tetracycline by checker board assay; assay type: functional
Cell membrane [6] = assay: Induction of membrane depolarization in methicillin-resistant Staphylococcus aureus USA300 assessed as disruption of transmembrane proton gradient by DiSC3(5) dye-based fluorescence assay
Bacteria [7] = assay: Inhibition of ATP-dependent ClpXP proteases (unknown origin)
Bacteria [8] = assay: Inhibition of ATP-dependent ClpYQ proteases (unknown origin)

Row | Compound | MIC (Staphylococcus aureus) [µg/mL] | MEC (Cell membrane [1]) [µg/mL] | EC50 (Cell membrane [2]) [µg/mL] | other results
1 | C=CCN1C(=O)C(Cl)=C(Cl)C12Oc1c(cc(Cl)c(O)c1C)C2=O (stereo not drawn) | > 32 | 8 | > 8 | –
2 | CCCCCCc1c(O)c(Cl)cc2c1OC1(C2=O)C(Cl)=C(Cl)C(=O)N1Cc1ccc(C(F)(F)F)cc1 (stereo not drawn) | 2 | 0.125 | 0.3 (≈ 0.533 µM) | –
3 | Cc1c(O)c(Cl)cc2c1OC1(C2=O)C(Cl)=C(Cl)C(=O)N1C (stereo not drawn) | > 32 | 8 | > 8 | –
4 | CCCCCCc1c(O)c(Cl)cc2c1OC1(C2=O)C(Cl)=C(Cl)C(=O)N1Cc1ccc(C)cc1 (stereo not drawn) | 0.5 | 0.125 | 0.07 (≈ 0.138 µM) | FIC (Escherichia coli [3]): >4
5 | CCCCCCc1c(O)c(Cl)cc2c1OC1(C2=O)C(Cl)=C(Cl)C(=O)N1C (stereo not drawn) | 4 | 0.5 | 0.42 (≈ 1 µM) | Activity (Cell membrane [4]): Active; FIC (Escherichia coli [3]): >4; FIC (Escherichia coli [5]): 0.656
6 | CCCCCCN1C(=O)C(Cl)=C(Cl)C12Oc1c(cc(Cl)c(O)c1C)C2=O (stereo not drawn) | 4 | 0.5 | 0.17 (≈ 0.406 µM) | –
7 | Cc1c(O)c(Cl)cc2c1OC1(C2=O)C(Cl)=C(Cl)C(=O)N1Cc1ccc(C(F)(F)F)cc1 (stereo not drawn) | 16 | 2 | 2.45 (≈ 4.97 µM) | –
8 | CCCCCCc1c(O)c(Cl)cc2c1OC1(C2=O)C(Cl)=C(Cl)C(=O)N1CCCCCC (stereo not drawn) | 1 | 0.0312 | 0.07 (≈ 0.143 µM) | FIC (Escherichia coli [3]): >4
9 | CCCCCCCCCCCCN1C(=O)C(Cl)=C(Cl)C12Oc1c(cc(Cl)c(O)c1CCCCCC)C2=O (stereo not drawn) | 16 | > 1 | > 8 | –
10 | Cc1c(O)c(Cl)cc2c1OC1(C2=O)C(Cl)=C(Cl)C(=O)N1Cc1ccccc1 (stereo not drawn) | 32 | 4 | 3.2 (≈ 7.54 µM) | –
11 | CCCCCCc1c(O)c(Cl)cc2c1OC1(C2=O)C(Cl)=C(Cl)C(=O)N1Cc1ccccc1 (stereo not drawn) | 1 | 0.5 | 0.39 (≈ 0.788 µM) | –
12 | C=CCN1C(=O)C(Cl)=C(Cl)C12Oc1c(cc(Cl)c(O)c1CCCCCC)C2=O (stereo not drawn) | 4 | 0.25 | 0.23 (≈ 0.517 µM) | –
13 | CCCCCCc1c(O)c(Cl)cc2c1OC1(C2=O)C(Cl)=C(Cl)C(=O)N1CCc1ccccc1 (stereo not drawn) | 0.5 | 0.125 | 0.12 (≈ 0.236 µM) | –
14 | CO[C@@H]1C[C@@H](C[C@H]2CC[C@H](C)[C@H]([C@@H](C)C(=O)O)O2)O[C@]2(O[C@](C)([C@H]3CC[C@@](C)([C@@H]4O[C@@H]([C@H]5O[C@@](O)(CO)[C@H](C)C[C@@H]5C)C[C@@H]4C)O3)C[C@H]2C)[C@@H]1C | – | – | – | Activity (Cell membrane [6]): Active
15 | CCCCCCc1c(OC)c(Cl)cc2c1OC1(C2)NC(=O)C(Cl)=C1Cl (stereo not drawn) | – | – | – | Activity (Cell membrane [4]): Active
16 | CCCCCCc1c(OC)c(Cl)cc2c1OC1(C2=O)C(Cl)=C(Cl)C(=O)N1CCCCCC (stereo not drawn) | 4 | 0.125 | 0.54 (≈ 1.07 µM) | inhibition (Bacteria [7]): inactive; inhibition (Bacteria [8]): inactive
17 | CCCCCCCCCCCCN1C(=O)C(Cl)=C(Cl)C12Oc1c(cc(Cl)c(O)c1C)C2=O (stereo not drawn) | 1 | 0.25 | 0.28 (≈ 0.557 µM) | –
18 | CC(C)[C@@H]1NC(=O)[C@H](C)OC(=O)[C@@H](C(C)C)NC(=O)[C@@H](C(C)C)OC(=O)[C@H](C(C)C)NC(=O)[C@H](C)OC(=O)[C@@H](C(C)C)NC(=O)[C@@H](C(C)C)OC(=O)[C@H](C(C)C)NC(=O)[C@H](C)OC(=O)[C@@H](C(C)C)NC(=O)[C@@H](C(C)C)OC1=O | – | – | – | Activity (Cell membrane [4]): Active
19 | CCCCCCc1c(OC)c(Cl)cc2c1OC1(C2=O)C(Cl)=C(Cl)C(=O)N1C (stereo not drawn) | > 32 | 4 | 2.04 (≈ 4.71 µM) | –
